The text below walks through data of patent US20060258735A1, “1,3-Bis-(substituted-phenyl)-2-propen-1-ones and their use to treat VCAM-1 mediated disorders” (priority 2000, published 2006).

One assay deals with eosinophil recruitment. As to the kind of experiment: Mouse peritonitis model (ovalbumin, eosinophil recruitment). Type of assay: in vivo. As to conditions: 50 mg/kg/dose subcutaneous at -24, -2, +2 and +6 hrs around ovalbumin challenge; Balb/C mice; 48 hrs post-challenge; FIG. 2. The procedure: (§1) Balb/C mice (n=10) were sensitized to ovalbumin on days 0 and 7 with a subcutaneous injection of ovalbumin absorbed in aluminum hydroxide. They were then challenged with an intraperitoneal injection of ovalbumin and sacrificed 48 hrs post-challenge. Peritoneal fluid was then collected and spun down onto slides. Slides were stained with DiffQuik and a differential performed. The test compound was administered by subcutaneously injection −24, −2, +2 and +6 hrs around the time of ovalbumin challenge. This is a model of allergic inflammation as eosinophils are the major leukocyte recruited into the peritoneum.
as §1, with “compound wase” for “compound was”

In the next assay the test system is paw edema. As to the kind of experiment: Paw edema model (delayed type hypersensitivity, metBSA). As to conditions: 50 mg/kg/dose intraperitoneal at -24, -2 and +6 hrs around metBSA challenge; Balb/C mice; 24 hours after challenge; FIG. 3. It counts as in vivo. The procedure: Balb/C mice (n=5) were sensitized intradermally on day 0 with methylated BSA (metBSA). They were then challenged with metBSA on day 7 in the right hind paw. The animals were sacrificed 24 hours later and the left and right hind paws weighed. The left hindpaw weight is subtracted from the right hind paw to give the paw weight increase. The test compound was administered by intraperitoneal injection −24, −2 and +6 hrs around the time of metBSA challenge.

Take `COc1cc(OC)c(-c2cc3ccccc3s2)cc1/C=C/C(=O)c1cc(OC)c(OC)c(OC)c1` [3-[5-(benzo[b]thien-2-yl)-2,4-dimethoxyphenyl]-1-(3,4,5-trimethoxyphenyl)-2-propen-1-one]: in the assay with eosinophil recruitment, the “inhibition of eosinophil recruitment (percent eosinophils in the peritoneal fluid)” value is “inhibition of eosinophil recruitment”. The “inhibition of paw edema (paw weight increase)” value in the assay on paw edema is “inhibition of paw edema”.
